Reference: patent US20250031699A1, “Method for Controlling Parasitic Plants” (AJINOMOTO CO., INC., priority 2022, published 2025)

Tested on: Orobanche ramosa L.
Assay: Germination inducer activity in Orobanche ramosa L. (germination rate of seeds)
Format: in vivo
Protocol: In this Example, the germination inducer activity of Compound 1 on Orobanche ramosa L. was analyzed by measuring the germination rate. Orobanche ramosa L. is a parasitic plant of tomato, which is now classified as Phelipanche ramosa (L.) Pomel. The Orobanche ramosa L. used herein is a species that parasitizes tomatoes native to Portugal. Dried seeds of Orobanche ramosa L. were conditioned for one week in water from 20° C. to 26° C. in a dark and humid place. The compounds to be tested were each added in an amount of 2 mL to a Petri dish so as to give a final concentration of 1 μM or 100 nM (Compound 1), or 0.34 μM (GR24). After incubation from 20° C. to 26° C. in a dark and humid place for 1 week after the addition of the treatment solution, the germination rate was evaluated by counting the number of germinated seeds under a stereomicroscope.
In the table, “Germination” indicates the germination inducer activity of Compound 1. When the relative value of the germination rate was 4% or more, Compound 1 was marked with (+).

In the case of `COC(=O)[C@H](CCCCNC(=O)OC1C=C(C)C(=O)O1)NC(=O)OC(C)(C)C` (some centres unmarked) [Compound 1], the “germination inducer activity for Orobanche ramosa L.” value (1 μM or 100 nM) is reported as “exhibited germination inducer activity” and the Germination (Compound 1 at 1 μM or 100 nM, 20° C. to 26° C., dark, 1 week) is reported as “+ (When the relative value of the germination rate was 4% or more, Compound 1 was marked with (+))”.
